{"source": "patent EP0180581B2", "about": "“DRUG PREPARATIONS OF REDUCED TOXICITY” (THE LIPOSOME COMPANY, INC., priority 1984, dated 1985)", "key": {"mice": {"test_system": "mice", "assay": "Acute toxicity of streptomycin-ligand preparations, subcutaneous (Table II)", "assay_type": "in vivo", "conditions": "for effectiveness in reducing the toxicity of streptomycin: ligand mixed with streptomycin (1:3 or 1:1 molar ratio), 1000 mg streptomycin per kg subcutaneously in mice"}, "erythrocytes": {"test_system": "erythrocytes", "assay": "Hemolytic effect on erythrocytes (released hemoglobin)", "assay_type": "cell-based"}, "C. albicans": {"test_system": "C. albicans", "assay": "Minimum inhibitory concentration for C. albicans", "assay_type": "cell-based", "conditions": "50% growth inhibition, overnight at 35° C", "description": "The minimum inhibitory concentration (M.I.C.) of the amphotericin B preparations for C. albicans was determined as follows: each of the 5 preparations was serially diluted in a 96 round-bottomed well plate, using 1/2 step dilutions of drug in 50 »| Mico-broth per well and 3 wells for each dilution step. After dilutions were completed, each well received 50 »| broth containing 10³ cells of C. albicans. Plates were incubated overnight at 35° C in a humidified atmosphere."}, "L-cells [1]": {"test_system": "L-cells", "assay": "Cytotoxicity for L-cells (50% growth inhibition)", "conditions": "72 hours at 37°C"}, "L cells": {"test_system": "L cells", "assay": "Cloning efficiency of L cells", "assay_type": "cell-based", "description": "Plastic petri dishes (35 mm diameter) were seeded with 50 L-cells per dish in 2 m| MEM plus 10% fetal calf serum containing one of the amphotericin B preparations (2 dishes per amphotericin B preparation). The dishes were incubated for 10 days and the cloned cultures were stained with crystal violet as described above."}, "Swiss Webster mice [2]": {"test_system": "Swiss Webster mice", "assay": "LD50 of aminoglycoside antibiotics with and without phosphorylcholine, subcutaneous", "assay_type": "in vivo", "conditions": "mg aminoglycoside antibiotic per kg body weight, survivors after 24 hours", "description": "(§1) In order to determine the LD₅₀ of the aminoglycoside preparations a quantity of antibiotic was dissolved in 20 m| distilled water with or without phosphorylcholine to achieve a final 1:3 molar ratio of antibiotic to ligand. Then, 0.6 m| aliquots of serial dilutions of the aminoglycoside preparations were injected subcutaneously into Swiss Webster mice (ten animals per group, average weight 23 g each). After 24 hours the number of survivors in each group was determined and the LD₅₀ and 95% confidence limits for each were computed according to the Spearman-Karber Method for Quantal Data (from Finney, 1952, Statistical Method in Biological Assay, Hafner Pub. Co., New York)."}, "L-cells [3]": {"test_system": "L-cells", "conditions": "mouse, 72 h"}, "male Swiss-Webster mice": {"test_system": "male Swiss-Webster mice", "conditions": "mouse, in vivo, iv, 400 mg/kg", "description": "Six male Swiss-Webster mice weighing 27 gms each were given a single intravenous injection of 400 mg/kg PEG-cholesterol."}, "[4]": {"conditions": "in vitro; cited from earlier work"}, "Swiss Webster mice [5]": {"test_system": "Swiss Webster mice", "assay": "Toxicity (lethality) of streptomycin administered with and without ligand, subcutaneous", "assay_type": "in vivo", "conditions": "streptomycin 1000 mg/kg subcutaneously, ligand 1:3 molar ratio, mixed immediately prior to administration"}, "[6]": {"assay": "LD50 of aminoglycoside antibiotics with and without phosphorylcholine, subcutaneous", "assay_type": "in vivo", "conditions": "mouse, in vivo, sc, mg aminoglycoside antibiotic per kg body weight, Swiss Webster mice, survivors after 24 hours, read-out: LD₅₀", "description": "as §1"}, "patients": {"test_system": "patients", "conditions": "cited from earlier work"}, "[7]": {"conditions": "AmB preparations at 25 @g amphotericin B/m| medium, 10 days"}}, "note": "Like-named read-outs stand apart in the source and are kept apart here.", "data": [{"compound": "C[N+](C)(C)CCOP(=O)(O)O", "note": "[phosphorylcholine]", "values": [{"measurement": "effectiveness in reducing aminoglycoside toxicity", "setting": "mice; general statement on ligands", "result": "very effective in reducing aminoglycoside toxicity"}, {"measurement": "effectiveness in reducing the toxicity of streptomycin", "setting": "mice", "result": "very effective in reducing the toxicity of streptomycin"}]}, {"compound": "NCCOP(=O)(O)O", "note": "[phosphorylethanolamine]", "values": [{"measurement": "effectiveness in reducing aminoglycoside toxicity", "setting": "mice; general statement on ligands", "result": "less effective"}]}, {"compound": "deoxycholate [DOC]", "values": [{"measurement": "OD550nm", "setting": "erythrocytes; concentration 1 @g/m|, 2% erythrocytes, 37°C, 20 hours", "result": 0.03}, {"measurement": "OD550nm", "setting": "erythrocytes; concentration 2 @g/m|, 2% erythrocytes, 37°C, 20 hours", "result": 0.03}, {"measurement": "OD550nm", "setting": "erythrocytes; concentration 2.5 @g/m|, 2% erythrocytes, 37°C, 20 hours", "result": 0.03}, {"measurement": "OD550nm", "setting": "erythrocytes; concentration 15 @g/m|, 2% erythrocytes, 37°C, 20 hours", "result": 0.03}, {"measurement": "OD550nm", "setting": "erythrocytes; concentration 30 @g/m|, 2% erythrocytes, 37°C, 20 hours", "result": 0.03}, {"measurement": "OD550nm", "setting": "erythrocytes; concentration 60 @g/m|, 2% erythrocytes, 37°C, 20 hours", "result": 0.06}, {"measurement": "OD550nm", "setting": "erythrocytes; concentration 125 @g/m|, 2% erythrocytes, 37°C, 20 hours", "result": 0.23}, {"measurement": "OD550nm", "setting": "erythrocytes; concentration 250 @g/m|, 2% erythrocytes, 37°C, 20 hours", "result": 0.47}, {"measurement": "Minimum Inhibitory Concentration of Amphotericin B, C. albicans", "setting": "C. albicans", "result": "5,000+ @g/m|"}, {"measurement": "Minimum Inhibitory Concentration of Amphotericin B, L cells", "setting": "L-cells [1]", "result": "250.0 @g/m|"}, {"measurement": "Number of Clones, % of Control", "setting": "L cells; [7]", "result": 70.8, "unit": "%"}, {"measurement": "Number of Clones, Number of Colonies", "setting": "L cells; [7]", "result": 68}, {"measurement": "Size of Colonies, % of Control", "setting": "L cells; [7]", "result": 92, "unit": "%"}, {"measurement": "Size of Colonies, Mean Diameter", "setting": "L cells; [7]", "result": 2.3}]}, {"compound": "Neomycin", "values": [{"measurement": "LD₅₀", "setting": "Swiss Webster mice [2]", "result": 371, "unit": "mg/kg"}]}, {"compound": "egg lysophosphatidylcholine", "values": [{"measurement": "effectiveness in reducing aminoglycoside toxicity", "setting": "mice; mouse, in vivo", "result": "very effective in reducing aminoglycoside toxicity"}]}, {"compound": "Gentamycin", "values": [{"measurement": "LD₅₀", "setting": "Swiss Webster mice [2]", "result": 692, "unit": "mg/kg"}]}, {"compound": "polyethylene glycol-cholesterol [PEG-Chol]", "values": [{"measurement": "OD550nm", "setting": "erythrocytes", "result": 0.03}, {"measurement": "Minimum Inhibitory Concentration of Amphotericin B, C. albicans", "setting": "C. albicans", "result": "25,000+ @g/m|"}, {"measurement": "Number of Clones, Number of Colonies", "setting": "L cells", "result": 83}, {"measurement": "Size of Colonies, Mean Diameter", "setting": "L cells", "result": 2.5}, {"measurement": "Number of Clones, % of Control", "setting": "L cells; mouse, l cells, 240 h", "result": 86.5, "unit": "%"}, {"measurement": "Size of Colonies, % of Control", "setting": "L cells; mouse, l cells, 240 h", "result": 100, "unit": "%"}, {"measurement": "Minimum Inhibitory Concentration of Amphotericin B, L cells", "setting": "L-cells [3]", "result": "500.0+ @g/m|"}, {"measurement": "overt signs of toxicity", "setting": "male Swiss-Webster mice", "result": "No overt signs of toxicity"}]}, {"compound": "C[C@@H]1[C@H](O)[C@@H](C)/C=C/C=C/C=C/C=C/C=C/C=C/C=C/[C@H](O[C@@H]2O[C@H](C)[C@@H](O)[C@H](N)[C@@H]2O)C[C@@H]2O[C@](O)(C[C@@H](O)C[C@@H](O)[C@H](O)CC[C@@H](O)C[C@@H](O)CC(=O)O[C@H]1C)C[C@H](O)[C@H]2C(=O)O", "note": "[amphotericin B]", "values": [{"measurement": "affinity for ergosterol compared to cholesterol", "setting": "[4]", "result": "approximately ten times greater affinity"}]}, {"compound": "O=P(O)(O)O[C@H]1[C@H](OP(=O)(O)O)[C@@H](OP(=O)(O)O)[C@H](OP(=O)(O)O)[C@@H](OP(=O)(O)O)[C@H]1OP(=O)(O)O", "note": "[inositol hexaphosphate]", "values": [{"measurement": "effectiveness in reducing the toxicity of streptomycin", "setting": "mice", "result": "very effective in reducing the toxicity of streptomycin"}]}, {"compound": "[H]/N=C(/N)N[C@H]1[C@H](O)[C@@H](O)[C@H](O[C@@H]2O[C@@H](C)[C@](O)(C=O)[C@H]2O[C@@H]2O[C@@H](CO)[C@H](O)[C@@H](O)[C@@H]2NC)[C@@H](N/C(N)=N\\[H])[C@@H]1O", "note": "[Streptomycin, streptomycin]", "values": [{"measurement": "Lethality No. Dead/No. Inoculated", "setting": "Swiss Webster mice [5]", "result": "7/8"}, {"measurement": "Percent Lethality", "setting": "Swiss Webster mice [5]", "result": 87.5, "unit": "%"}, {"measurement": "LD50 at 24 h", "setting": "[6]", "result": 741, "unit": "mg/kg"}, {"measurement": "patients manifesting some vestibular disturbance", "setting": "patients; 2g daily for 60 to 120 days", "result": "~75", "unit": "%"}, {"measurement": "incidence of vestibular disturbance", "setting": "patients; dose reduced to 1g daily", "result": 25, "unit": "%"}]}, {"compound": "C[N+](C)(C)CCOP(=O)([O-])OC[C@H](O)CO", "note": "[glycerolphosphorylcholine]", "values": [{"measurement": "effectiveness in reducing aminoglycoside toxicity", "setting": "mice; general statement on ligands", "result": "less effective"}]}]}
